Values of other authors in the PKSmart pharmacokinetics tables (Seal et al. 2025).
Where a SMILES comes first, the peptide text is derived from it.

Assay: Lombardo, Berellini, Obach 2018, Drug Metab Dispos 46:1466, doi 10.1124/dmd.118.082966
Details: human; for MRT / Vd / clearance / half-life: in vivo, iv; for fraction unbound: plasma

NC(=O)N1c2ccccc2CC(O)c2ccccc21 (stereo not drawn)
MRT: 13.6 h | Vd: 0.72 L/kg | clearance: 0.88 mL/min/kg | half-life: 9.8 h | fraction unbound: 0.7

Cc1onc(-c2ccccc2)c1-c1ccc(S(N)(=O)=O)cc1
MRT: 9.4 h | Vd: 0.75 L/kg | clearance: 1.4 mL/min/kg | half-life: 7.4 h | fraction unbound: 0.02

O=C(NC1CCN(CCCCC2(C(=O)NCC(F)(F)F)c3ccccc3-c3ccccc32)CC1)c1ccccc1-c1ccc(C(F)(F)F)cc1
MRT: 31.2 h | Vd: 16.3 L/kg | clearance: 8.7 mL/min/kg | half-life: 39.7 h | fraction unbound: 0.002

CC(C)CN(C[C@@H](O)[C@H](Cc1ccccc1)NC(=O)O[C@H]1CO[C@H]2OCC[C@H]21)S(=O)(=O)c1ccc(N)cc1
clearance: 7.81 mL/min/kg | half-life: 15 h

CC(=O)O[C@@]12CO[C@@H]1C[C@H](O)[C@@]1(C)C(=O)C(=O)C3C(C)[C@@H](OC(=O)C(O)C(NC(=O)OC(C)(C)C)c4ccccc4)C[C@@](O)([C@@H](OC(=O)c4ccccc4)[C@H]21)C3(C)C (stereo partly drawn)
MRT: 2.5 h | Vd: 2.1 L/kg | clearance: 14 mL/min/kg | half-life: 11 h | fraction unbound: 0.04

NC(Cc1c[nH]c2ccc(O)cc12)C(=O)O (stereo not drawn)
MRT: 7.75 h | Vd: 0.8 L/kg | clearance: 1.72 mL/min/kg | half-life: 6.14 h

CCOP(=O)(OCC)C(C)NC(=O)N(CCCl)N=O (stereo not drawn)
MRT: 0.55 h | Vd: 0.62 L/kg | clearance: 18.5 mL/min/kg | half-life: 0.38 h

Cc1nc(C#Cc2ccnc(Cl)c2)c(C)n1-c1ccc(F)cc1
MRT: 57.4 h | Vd: 9.7 L/kg | clearance: 2.8 mL/min/kg | half-life: 78.9 h | fraction unbound: 0.01

COc1cc(OC)c(C(=O)CCCN2CCCC2)c(OC)c1
MRT: 3.9 h | Vd: 1.3 L/kg | clearance: 5.6 mL/min/kg | half-life: 3.3 h

N#Cc1ccccc1-c1cc(-c2ccccn2)cn(-c2ccccc2)c1=O
MRT: 229 h | Vd: 1.36 L/kg | clearance: 0.1 mL/min/kg | half-life: 183 h | fraction unbound: 0.05

CC[C@@]1(O)C(=O)OCc2c1cc1n(c2=O)Cc2c-1nc1cc(F)c(C)c3c1c2[C@@H](N)CC3
MRT: 7.6 h | Vd: 0.44 L/kg | clearance: 0.96 mL/min/kg | half-life: 6.7 h

CC(C)C1C(=O)NC(CCCNC(=N)N)C(=O)NCC(=O)NC(CC(=O)O)C(=O)NC(Cc2ccccc2)C(=O)N1C (stereo not drawn)
MRT: 3.67 h | Vd: 0.26 L/kg | clearance: 1.18 mL/min/kg | half-life: 3.6 h

CC[C@H](c1ccccc1)c1c(O)c2ccccc2oc1=O
MRT: 182 h | Vd: 0.2 L/kg | clearance: 0.02 mL/min/kg | half-life: 126 h | fraction unbound: 0.57

CS(=O)(=O)c1ccc([C@@H](O)[C@@H](COC(=O)CN)NC(=O)C(Cl)Cl)cc1
MRT: 0.23 h | Vd: 0.13 L/kg | clearance: 9.6 mL/min/kg | half-life: 0.28 h | fraction unbound: 0.27

CC(C)=c1nc(N(C)S(C)(=O)=O)nc(-c2ccc(F)cc2)c1=CC[C@@H](O)C[C@@H](O)CC(=O)O
MRT: 2.6 h | Vd: 1.7 L/kg | clearance: 11 mL/min/kg | half-life: 2 h

CC1(C)S[C@@H]2C(NC(=O)C(NC(=O)N3CCN(/N=C/c4ccco4)C3=O)c3ccc(O)cc3)C(=O)N2C1C(=O)O (stereo partly drawn)
MRT: 0.92 h | Vd: 0.2 L/kg | clearance: 3.61 mL/min/kg | half-life: 1.3 h

CC(NC(=O)C(Cc1c[nH]c2ccccc12)NC(=O)C(N)Cc1cnc[nH]1)C(=O)NC(Cc1c[nH]c2ccccc12)C(=O)NC(Cc1ccccc1)C(=O)NC(CCCCN)C(N)=O (stereo not drawn) (H-HWAWFK-NH2; configuration not given here)
MRT: 2.45 h | Vd: 0.42 L/kg | clearance: 3.1 mL/min/kg | half-life: 2.46 h

Nc1nc(=O)n([C@H]2C[C@H](O)[C@@H](CO)O2)cc1F
MRT: 2.98 h | Vd: 0.91 L/kg | clearance: 5.09 mL/min/kg | half-life: 0.78 h

CC(C)(C)NC[C@H](O)COc1nsnc1N1CCOCC1
MRT: 3 h | Vd: 1.5 L/kg | clearance: 8.5 mL/min/kg | half-life: 2.2 h

CC(C)NC[C@H](O)COc1ccc(O)cc1
MRT: 3.23 h | Vd: 4.28 L/kg | clearance: 22.1 mL/min/kg | half-life: 2.85 h

CC(C)(F)CC(N[C@@H](c1ccc(-c2ccc(S(C)(=O)=O)cc2)cc1)C(F)(F)F)C(=O)NC1(C#N)CC1 (stereo partly drawn)
MRT: 147 h | Vd: 1.63 L/kg | clearance: 0.19 mL/min/kg | half-life: 108 h

CCCCCCCN(CC)CCCC(O)c1ccc(NS(C)(=O)=O)cc1 (stereo not drawn)
MRT: 7.7 h | Vd: 12 L/kg | clearance: 26 mL/min/kg | half-life: 7 h

CCOc1ncc(S(=O)(=O)N2CCN(CC)CC2)cc1-c1nc(=O)c2nn(CCOC)c(CC)c2[nH]1
MRT: 2.8 h | Vd: 2.4 L/kg | clearance: 14.3 mL/min/kg | half-life: 4 h

N=C(N)Nc1ccc(C(=O)Oc2ccc3cc(C(=N)N)ccc3c2)cc1
MRT: 1.15 h | Vd: 5.71 L/kg | clearance: 82 mL/min/kg | half-life: 1.84 h

C=C1CC[C@@H]2[C@](C)(COC(=O)CCC(=O)O)[C@H](OC(=O)CCC(=O)O)CC[C@@]2(C)[C@@H]1/C=C/C1=CCOC1=O
MRT: 1 h | Vd: 0.13 L/kg | clearance: 2 mL/min/kg | half-life: 1.9 h

C[C@H](O)C1C(=O)N2C(C(=O)O)=C(S[C@H]3CN[C@H](CNS(N)(=O)=O)C3)[C@@H](C)C12 (stereo partly drawn)
half-life: 1.2 h | fraction unbound: 0.92

C[C@@H](c1cccnc1F)c1c(CCN(C)C)sc2ccccc12
MRT: 10 h | Vd: 5.73 L/kg | clearance: 10.4 mL/min/kg | half-life: 15 h

CSCCNc1nc(SCCC(F)(F)F)nc2c1ncn2[C@@H]1O[C@H](CO[P@](=O)(O)O[P@](=O)(O)C(Cl)(Cl)P(=O)(O)O)[C@@H](O)[C@H]1O
MRT: 0.07 h | Vd: 0.035 L/kg | clearance: 9.06 mL/min/kg | half-life: 0.14 h | fraction unbound: 0.02

FC(F)(F)C(F)(F)C(F)(F)F
MRT: 0.05 h | Vd: 1.6 L/kg | clearance: 591 mL/min/kg | half-life: 0.02 h

CCOc1nc2cccc(C(=O)O)c2n1Cc1ccc(-c2ccccc2-c2nnn[nH]2)cc1
MRT: 5.9 h | Vd: 0.13 L/kg | clearance: 0.37 mL/min/kg | half-life: 9.7 h | fraction unbound: 0.002

Cc1ccc(S(=O)(=O)NC(=O)N[C@H]2[C@H]3CC[C@@](C)([C@H]2O)C3(C)C)cc1
MRT: 13 h | Vd: 0.27 L/kg | clearance: 0.34 mL/min/kg | half-life: 9.2 h

COc1ccc(CCN(C)CCC[C@](C#N)(c2cc(OC)c(OC)c(OC)c2)C(C)C)cc1OC
MRT: 2.04 h | Vd: 1.75 L/kg | clearance: 14.3 mL/min/kg | half-life: 1.8 h | fraction unbound: 0.07

COc1c2occc2cc2ccc(=O)oc12
MRT: 0.88 h | Vd: 0.61 L/kg | fraction unbound: 0.09

O=C(NCCO[N+](=O)[O-])c1cccnc1
MRT: 2.7 h | Vd: 1.4 L/kg | clearance: 8.9 mL/min/kg | half-life: 3.6 h | fraction unbound: 0.76

COc1ccc(C[C@@H]2c3cc(OC)c(OC)cc3CC[N@+]2(C)CCC(=O)OCCCCCOC(=O)CC[N@@+]2(C)CCc3cc(OC)c(OC)cc3[C@H]2Cc2ccc(OC)c(OC)c2)cc1OC
MRT: 0.43 h | Vd: 0.14 L/kg | clearance: 5.4 mL/min/kg | half-life: 0.42 h | fraction unbound: 0.62
